Assays:
MRGPRX2 [1] = target: T1, MRGPRX2 (Homo sapiens, UniProt Q96LB1); experiment: MRGPRX2 FLIPR Calcium Mobilization Assay; type: cell-based; parameters: host or cells: CHO-K1; details: CHO-K1 cells stably expressing human MRGPRX2; Ca2+ release; agonist Cortistatin-14 at EC80
T1 sequence (Q96LB1 1-330): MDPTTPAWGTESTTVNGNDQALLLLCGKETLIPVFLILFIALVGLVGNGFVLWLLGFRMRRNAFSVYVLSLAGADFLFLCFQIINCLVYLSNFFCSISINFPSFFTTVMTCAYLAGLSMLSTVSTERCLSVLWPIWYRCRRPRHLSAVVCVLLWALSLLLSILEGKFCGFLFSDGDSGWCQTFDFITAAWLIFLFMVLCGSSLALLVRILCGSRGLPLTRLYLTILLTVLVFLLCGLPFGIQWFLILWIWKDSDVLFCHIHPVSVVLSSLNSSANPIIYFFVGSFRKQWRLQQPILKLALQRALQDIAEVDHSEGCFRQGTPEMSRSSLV
Experimental: Example A. MRGPRX2 FLIPR Calcium Mobilization Assay
Chinese hamster ovary (CHO-K1) cells stably expressing human MRGPRX2 were purchased from Genescript (Piscataway, NJ). The cells were maintained in culture medium (Ham's F-12K) containing 10% (v/v) FBS, 200 μg/mL Zeocin, 100 units/mL penicillin G and 100 μg/mL streptomycin (Life Technologies, Carlsbad, CA). For the assay, the cells were harvested and resuspended with culture medium without Zeocin before plating at 8000 cells per well in 20 μL in 384-well black clear bottom cell culture plates (VWR, Radnor, PA). After 24 hour culture at 37° C. and 5% CO2, the cells were loaded with 20 μL/well of calcium dye (FLIPR Calcium 6 Assay Kit, Molecular Devices, San Jose, CA) diluted in loading buffer (1× Hank's Balanced Salt Solution (HBSS), 5 mM probenecid, 20 mM 4-(2-hydroxyethyl)-1-piperazineethanesulfonic acid (HEPES), pH 7.4, VWR, Radnor, PA) followed with 45 min incubation at 37° C. and 40 min. at r.t. in the dark. Cells were then treated with the addition of 10 uL/well test compounds with a range of increasing concentrations diluted in the assay buffer (1×HBSS, 20 mM HEPES, pH 7.4, VWR, Radnor, PA) with FLIPR Penta (Molecular Devices. San Jose, CA) and incubated for 30 min. at r.t. Ca^2+ release was measured with FLIPR Penta with 10 s basal fluorescence measurement, then 12.5 μL of 5× agonist Cortistatin-14 (Tocris, Minneapolis, MN) at final concentration corresponding to the EC80 were added followed with continued fluorescence signal monitoring for an additional 110 s. The base line adjusted (median of first 10s base line) max value of the Relative Fluorescence Unit (RFU) was plotted against compound concentrations. Wells with no compound were served as the positive controls, and wells with high concentration of reference antagonist were used as negative controls. IC50 curves were globally fitted with 3- or 4-parameter Hill equation in a Genedata Screener (Genedata Basel, Switzerland).

MRGPRX2 [2] = target: T1, MRGPRX2; experiment: MRGPRX2 β-Arrestin Assay; type: cell-based; parameters: host or cells: PathHunter CHO-K1; details: PathHunter CHO-K1 MRGPRX2 β-Arrestin cell line; agonist Cortistatin 14 0.25 μM
Text: Example C: MRGPRX2 β-Arrestin Assay
This assay measures compound inhibition of β-Arrestin recruitment, which is part of the G protein-independent pathway that results from the ligand-activated GPCR phosphorylation by specific GPCR kinases. The PathHunter CHO-K1 MRPGRX2 B-Arrestin Cell line stably expressing ProLink tagged MRGPRX2 and Enzyme Acceptor Tagged B-Arrestin was purchased from Eurofins DiscoverX, (Fremont, CA).
The cells were maintained in culture medium from the Europhins DiscoverX Cell Culture Kit-107 which includes FBS, hygromycin B and G418. For the assay, the cells were harvested and were resuspended with Cell Plating Reagent 2 (Eurofins DiscoverX). Cells were added 10000 cells in 25 μL/well to a 384-well black cell culture plate (Greiner VWR, Radnor, PA) which contained 125 nL/well of compound at a selected serially diluted concentration range or DMSO. The plate was incubated at 37° C. with 5% CO2 for 1 h. 2 μL/well of agonist Cortistatin 14 was diluted in Protein Dilution Buffer, (Eurofins DiscoverX) for a final concentration of 0.25 μM, was added and the plate was incubated at 37° C. with 5% CO2 for 90 min. 14 μL/well of Detection Reagent Mix (PathHunter Detection Kit, Eurofins DiscoverX) was added to the plates and further incubated for 1 h in the dark. Plates were read on the PHERAstar microplate reader (BMG Labtech Cary, NC) measuring luminescence 0.1 to 1 s per well. Data was normalized using DMSO only wells and wells with high concentration of reference antagonist as controls. Compound IC50 curves were globally fitted with 3- or 4-parameter Hill equation in a Genedata Screener (Genedata Basel, Switzerland).

SMILES	IC50 (MRGPRX2 [1]) [nM]	IC50 (MRGPRX2 [2]) [nM]
Fc1ccc(Oc2cnc3cc(C(N4CC5CCC4C5)C(F)(F)F)ncc3c2)c(F)c1 (stereo not drawn) [Example 11, 7-(1-(2-Azabicyclo[2.2.1]heptan-2-yl)-2,2,2-trifluoroethyl)-3-(2,4-difluorophenoxy)-1,6-naphthyridine]		100 to 1000
Fc1ccc(Oc2cnc3cc(C(C(F)F)N4CCC(F)(F)CC4)ncc3c2)c(F)c1 (stereo not drawn) [Example 22, 3-(2,4-Difluorophenoxy)-7-(1-(4,4-difluoropiperidin-1-yl)-2,2-difluoroethyl)-1,6-naphthyridine]	0.1 to 100	0.1 to 100
Fc1ccc(Oc2cnc3cc(C(C(F)F)N4CCCC(c5ccn[nH]5)C4)ncc3c2)c(F)c1 (stereo not drawn) [Example 23, 7-(1-(3-(1H-Pyrazol-5-yl)piperidin-1-yl)-2,2-difluoroethyl)-3-(2,4-difluorophenoxy)-1,6-naphthyridine]	0.1 to 100	0.1 to 100
NC(=O)[C@@H]1CCCN1C(c1cc2ncc(Oc3ccc(F)cc3F)cc2cn1)C(F)F (stereo partly drawn) [Example 24, (2S)-1-(1-(3-(2,4-Difluorophenoxy)-1,6-naphthyridin-7-yl)-2,2-difluoroethyl)pyrrolidine-2-carboxamide]	0.1 to 100	0.1 to 100
Fc1ccc(Oc2cnc3cc(C(C(F)F)N4CCCC4c4ccccc4)ncc3c2)c(F)c1 (stereo not drawn) [Example 25, 7-(2,2-Difluoro-1-(2-phenylpyrrolidin-1-yl)ethyl)-3-(2,4-difluorophenoxy)-1,6-naphthyridine]	0.1 to 100	0.1 to 100
O=c1ccc(C2CN(C(c3cc4ncc(Nc5ccc(F)cc5F)cc4cn3)C(F)(F)F)CCC2(F)F)c[nH]1 (stereo not drawn) [Example 26, 5-(1-(1-(3-((2,4-Difluorophenyl)amino)-1,6-naphthyridin-7-yl)-2,2,2-trifluoroethyl)-4,4-difluoropiperidin-3-yl)pyridin-2(1H)-one]		> 1000
O=c1ccc(C2CN(C(c3cc4ncc(Cc5ccccc5)cc4cn3)C(F)(F)F)CCC2(F)F)c[nH]1 (stereo not drawn) [Example 27, 5-(1-(1-(3-Benzyl-1,6-naphthyridin-7-yl)-2,2,2-trifluoroethyl)-4,4-difluoropiperidin-3-yl)pyridin-2(1H)-one]		> 1000

The next lines start with the values.

IC50 (MRGPRX2 [1]) [nM]	IC50 (MRGPRX2 [2]) [nM]	SMILES
0.1 to 100	0.1 to 100	CC1(C)CN(C(c2cc3ncc(Oc4ccc(F)cc4F)cc3cn2)C(F)(F)F)CCO1 (stereo not drawn) [Example 8, 4-(1-(3-(2,4-Difluorophenoxy)-1,6-naphthyridin-7-yl)-2,2,2-trifluoroethyl)-2,2-dimethylmorpholine]
0.1 to 100	0.1 to 100	CC1(CO)CCCN(C(c2cc3ncc(Oc4ccc(F)cc4F)cc3cn2)C(F)(F)F)C1 (stereo not drawn) [Example 9, (1-(1-(3-(2,4-Difluorophenoxy)-1,6-naphthyridin-7-yl)-2,2,2-trifluoroethyl)-3-methylpiperidin-3-yl)methanol]
0.1 to 100	0.1 to 100	N#CC1CCCN(C(c2cc3ncc(Oc4ccc(F)cc4F)cc3cn2)C(F)(F)F)C1 (stereo not drawn) [Example 10, 1-(1-(3-(2,4-Difluorophenoxy)-1,6-naphthyridin-7-yl)-2,2,2-trifluoroethyl)piperidine-3-carbonitrile]
0.1 to 100	0.1 to 100	OC[C@@H]1CCCN1C(c1cc2ncc(Oc3ccc(F)cc3F)cc2cn1)C(F)(F)F (stereo partly drawn) [Example 13, ((2S)-1-(1-(3-(2,4-Difluorophenoxy)-1,6-naphthyridin-7-yl)-2,2,2-trifluoroethyl)pyrrolidin-2-yl)methanol]
0.1 to 100	0.1 to 100	CC1(O)CCCN(C(c2cc3ncc(Oc4ccc(F)cc4F)cc3cn2)C(F)F)C1 (stereo not drawn) [Example 21, 1-(1-(3-(2,4-Difluorophenoxy)-1,6-naphthyridin-7-yl)-2,2-difluoroethyl)-3-methylpiperidin-3-ol]

Source: patent publication US20250206734A1, “BICYCLIC HETEROCYCLES AS MRGPRX2 ANTAGONISTS” (Incyte Corporation, priority 2023, published 2025)
